Measurements published in patent publication US20260217653A1, “CRYSTALLINE COMPOUND OF AN LPAR1 ANTAGONIST” (CONTINEUM THERAPEUTICS, INC., priority 2023, published 2026).
“Also recorded” adds a separate entry of the source.

Columns and labels:
[1] = Dry grinding simulation experiments (mortar and pestle, XRPD); type: physicochemical
Description: (§1) Feasibility of formulation process for Pattern A was evaluated by compression, grinding, and granulation simulation experiments. […] About 20 mg of Pattern A crystalline polymorph was ground manually with a mortar and pestle for 1, 3, and 5 min. Potential form change and degree of crystallinity were evaluated by XRPD.

[2] = Wet granulation simulation experiments (XRPD); type: physicochemical
Description: Feasibility of formulation process for Pattern A was evaluated by compression, grinding, and granulation simulation experiments. […] Water or ethanol was added drop wise to about 20 mg of Pattern A crystalline polymorph until the sample was wetted sufficiently. Wet sample was ground gently with a mortar and pestle. Post granulation sample was dried under ambient condition for 3 min. Potential form change and degree of crystallinity were evaluated by XRPD.

[3] = Compression simulation experiments (hydraulic press, XRPD); type: physicochemical; conditions: for Comments (crystallinity after compression) / XRPD after compression: 5 minutes
Description: as §1, with “10” for “20”, “compressed for 5 minutes under 5 MPa and 10 MPa” for “ground manually”, “hydraulic press.” for “mortar and pestle for 1, 3, and 5 min.”

[4] = Bulk stability of Pattern A (XRPD, HPLC, color) after 1 week storage; type: physicochemical; conditions: for Bulk (XRPD) form after storage / Color after storage / Bulk (HPLC) purity after storage: Solid state, 1 week; for Bulk (HPLC) purity after storage: initial purity 99.9%
Description: Bulk stability of Pattern A was evaluated at 25° C./92% RH in an open container, at 40° C./75% RH in an open container, and at 60° C. in a tight container over 1 week. […] Pattern A crystalline polymorph was placed at 25° C./92% RH in an open container, at 40° C./75% RH in an open container, and at 60° C. in a closed container for 1 week. Samples after the stress were characterized by XRPD and HPLC and inspected for color change.

[5] = Water sorption and desorption (hygroscopicity) by dynamic vapor sorption (DVS); type: physicochemical; conditions: 25° C.
Description: Hygroscopicity of Pattern A was evaluated by dynamic vapor sorption (DVS) test at 25° C. with a cycle of 40→0→95→0→40% RH at a rate of change in mass per time unit of 0.002% per minute. […] It absorbed about 1.2% water at 80% RH and 3.1% water at 95% RH at 25° C. (FIG. 8). […] Water sorption and desorption behavior of Pattern A crystalline polymorph was investigated by DVS at 25° C. with a cycle of 40-0-95-0-40% RH, dm/dt 0.002, minimum equilibration time 60 min, and maximum equilibration time 360 min. XRPD was measured after the DVS test to determine form change.

human LPAR1 = target: T1, human LPAR1 (Homo sapiens, UniProt Q92633); assay: In vitro functional assay of lysophosphatidic acid receptor 1 activity (calcium flux, Fluo-4 NW, LPA 18:1 at EC80); type: cell-based; conditions: B103 cells stably expressing human LPAR1
T1 construct: by own knowledge a rat neuroblastoma line
Description: Primary compound plates were prepared in 100% DMSO (Sigma-Aldrich), secondary compound plates were prepared at 10× concentration in DMEM (Invitrogen), and tertiary compound plates were prepared at 3× concentration in assay buffer containing HBSS (no Ca^+2/Mg^−2. Invitrogen) and 0.1% BSA (Sigma-Aldrich). Fluo-4 NW calcium assay dye (Invitrogen) was prepared as per manufacturer's recommendations in assay buffer. B103 cells stably expressing human LPAR1 (J. Chun lab, UCSD) were grown to confluency in DMEM media (Invitrogen) containing 10% FBS (ATCC), […] (Sigma-Aldrich) and […] (Sigma-Aldrich), and detached with Accutase (Sigma-Aldrich) prior to assay. The freshly detached cells were resuspended in growth media and plated in black, clear-bottom 96-well plates (Costar) containing compound (i.e., secondary compound plate) at a density of 5×10^4 cells/well. Once plated, cells were left at room temperature for 30 minutes and then transferred to a 37° C. 5% CO2 incubator for 24 hours. […] Finally, lysophosphatidic acid (18:1) at the EC80 concentration was added and calcium flux measured using FlexStation 3 (Molecular Devices). Sigmoidal dose-response curves were generated by measuring […] over 45 sec and calculating the area under the curve. […]

[6] = grinding time 1 min, mortar and pestle

T1 sequence (Q92633 whole entry): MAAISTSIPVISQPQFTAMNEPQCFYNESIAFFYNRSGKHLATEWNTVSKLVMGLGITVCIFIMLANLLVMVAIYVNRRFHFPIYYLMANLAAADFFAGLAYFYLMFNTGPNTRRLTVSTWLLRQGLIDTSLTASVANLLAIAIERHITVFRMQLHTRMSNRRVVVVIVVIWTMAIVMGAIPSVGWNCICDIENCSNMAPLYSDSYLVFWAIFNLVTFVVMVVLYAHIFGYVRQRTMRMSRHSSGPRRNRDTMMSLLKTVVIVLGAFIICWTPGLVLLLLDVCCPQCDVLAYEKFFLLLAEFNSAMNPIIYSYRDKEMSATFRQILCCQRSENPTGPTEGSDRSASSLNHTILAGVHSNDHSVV

COc1ccc(NC(=O)N(c2ccccc2C(C)C)[C@H]2CC[C@H](C(=O)O)CC2)c(OC(F)F)n1 [Pattern A, trans-4-(3-(2-(difluoromethoxy)-6-methoxypyridin-3-yl)-1-(2-isopropylphenyl)ureido)cyclohexane-1-carboxylic acid]
Form after manual grinding ([1]; after 3 minutes of grinding with a mortar and pestle): converted to practically amorphous form | Comments (crystallinity after dry grinding) [1, 6]: Peaks becoming broader; also recorded: Partial amorphization | XRPD after dry grinding [1, 6]: Pattern A | XRPD after dry grinding ([1]; grinding time 3 min, mortar and pestle): Almost amorphous | XRPD after dry grinding ([1]; grinding time 5 min, mortar and pestle): Almost amorphous | Comments (crystallinity after wet granulation) ([2]; granulation solvent ethanol): Peaks becoming broader; also recorded: Partial amorphization; also recorded: Significant decrease in | XRPD after wet granulation ([2]; granulation solvent ethanol): Pattern A | Comments (crystallinity after wet granulation) ([2]; granulation solvent water): Significant decrease in; also recorded: Peaks becoming broader; also recorded: Partial amorphization | XRPD after wet granulation ([2]; granulation solvent water): Pattern A | Crystallinity/form upon wet granulation ([2]; wet granulation with ethanol or water): partial amorphization was observed | Comments (crystallinity after compression) ([3]; 5 MPa): Slight decrease in crystallinity; also recorded: Peaks becoming broader | XRPD after compression ([3]; 5 MPa): Pattern A | Comments (crystallinity after compression) ([3]; 10 MPa): Slight decrease in crystallinity; also recorded: Peaks becoming broader | XRPD after compression ([3]; 10 MPa): Pattern A | Crystallinity change upon compression ([3]; compression (5 MPa and 10 MPa)): only slight crystallinity decrease | Form change upon compression ([3]; compression (5 MPa and 10 MPa)): no form change | Bulk stability (physical and chemical) ([4]; 25° C./92% RH open container, 40° C./75% RH open container, 60° C. tight container, over 1 week): physically and chemically stable | Bulk (XRPD) form after storage ([4]; 25° C./92% RH, open container): Pattern A (FIG. 7) | Color after storage ([4]; 25° C./92% RH, open container): No change | Bulk (HPLC) purity after storage ([4]; 25° C./92% RH, open container): 99.9% | Bulk (XRPD) form after storage ([4]; 40° C./75% RH, open container): Pattern A (FIG. 7) | Color after storage ([4]; 40° C./75% RH, open container): No change | Bulk (HPLC) purity after storage ([4]; 40° C./75% RH, open container): 99.9% | Bulk (XRPD) form after storage ([4]; 60° C., tight container): Pattern A (FIG. 7) | Color after storage ([4]; 60° C., tight container): No change | Bulk (HPLC) purity after storage ([4]; 60° C., tight container): 99.9% | 1st desorp. Weight % change ([5]; 0% RH): 0.03% | 1st sorp. Weight % change ([5]; 0% RH): 0.03% | 2nd desorp. Weight % change ([5]; 0% RH): 0.00% | 2nd sorp. Weight % change ([5]; 0% RH): 0.00% | 1st desorp. Weight % change ([5]; 10% RH): 0.05% | 1st sorp. Weight % change ([5]; 10% RH): 0.05% | 2nd desorp. Weight % change ([5]; 10% RH): 0.02% | 2nd sorp. Weight % change ([5]; 10% RH): 0.02% | 1st desorp. Weight % change ([5]; 20% RH): 0.05% | 1st sorp. Weight % change ([5]; 20% RH): 0.05% | 2nd desorp. Weight % change ([5]; 20% RH): 0.03% | 2nd sorp. Weight % change ([5]; 20% RH): 0.02% | 1st desorp. Weight % change ([5]; 30% RH): 0.06% | 1st sorp. Weight % change ([5]; 30% RH): 0.05% | 2nd desorp. Weight % change ([5]; 30% RH): 0.03% | 2nd sorp. Weight % change ([5]; 30% RH): 0.02% | 1st desorp. Weight % change ([5]; 40% RH): 0.06% | 1st sorp. Weight % change ([5]; 40% RH): 0.05% | 2nd desorp. Weight % change ([5]; 40% RH): 0.04% | 2nd sorp. Weight % change ([5]; 40% RH): 0.03% | 1st sorp. Weight % change ([5]; 50% RH): 0.06% | 2nd desorp. Weight % change ([5]; 50% RH): 0.35% | 1st sorp. Weight % change ([5]; 60% RH): 0.06% | 2nd desorp. Weight % change ([5]; 60% RH): 0.64% | 1st sorp. Weight % change ([5]; 70% RH): 0.07% | 2nd desorp. Weight % change ([5]; 70% RH): 0.84% | 1st sorp. Weight % change ([5]; 80% RH): 1.15% | 2nd desorp. Weight % change ([5]; 80% RH): 1.16% | Hygroscopicity ([5]; 80% RH): slightly hygroscopic | Water absorbed ([5]; 80% RH): about 1.2% | 1st sorp. Weight % change ([5]; 90% RH): 1.93% | 2nd desorp. Weight % change ([5]; 90% RH): 1.93% | 1st sorp. Weight % change ([5]; 95% RH): 3.06% | 2nd desorp. Weight % change ([5]; 95% RH): 3.06% | Hygroscopicity ([5]; 95% RH): hygroscopic | Water absorbed ([5]; 95% RH): ~3.1% | XRPD after DVS test ([5]; after cycle 40-0-95-0-40% RH): still Pattern A; also recorded: No form change (FIG. 9)

COc1ccc(NC(=O)N(c2ccccc2C(C)C)[C@H]2CC[C@H](C(=O)O)CC2)c(OC(F)F)n1 [trans-4-(3-(2-(difluoromethoxy)-6-methoxypyridin-3-yl)-1-(2-isopropylphenyl)ureido)cyclohexane-1-carboxylic acid]
IC50 (human LPAR1): 10 nM
